# System: chick chorioallantoic membrane (CAM)
# Assay: chick chorioallantoic membrane (CAM) assay, inhibition of angiogenesis
# Format: in vivo
# Set-up: key: 0: normal vascularity; 1: lacking some microvascular movement; small avascular zone approximately 2 mm in diameter; 3: avascularity extending beyond the disk (6 mm in diameter)
# Settings: 2 day exposure
# Experimental: Paclitaxel, dipyridamole, and a combination of paclitaxel and dipyridimole were tested in a chick chorioallantoic membrane (CAM) assay (A. Cevik Tufan and N. Lalae Satirglu-Tufanm Current Cancer Drug Targets, 2005, 5: 249-266) to measure inhibition of angiogenesis by the compounds.
# Fertilized, domestic chick embryos were incubated for 4 days prior to shell-less culturing. In this procedure, the egg contents were emptied by cracking the shell, and allowing the contents of the egg to gently slide out. The egg contents were emptied into sterilized petri dishes and then covered with petri dish covers. These were then placed into an incubator at 37 degrees and 90% relative humidity for 4 days.
# Paclitaxel (Hauser Lot 1492-16199A) was fixed at concentrations of 0.3 μg and 1 μg per 10 ul aliquot of 0.5% aqueous methylcellulose (disc). Dipyridamole (Aldrich 285676, Lot 064K157) was added to each fixed dose of paclitaxel at specific molar ratios of 1:3, 1:10, 1:1, 3:1, 10:1. Neat solvent (DMSO), paclitaxel at 0.3 μg and 1 μg per disc and the dipyridamole at 5.92 μg per disc were used as the individual controls. Ten microliter aliquots of this solution were dried on parafilm for 3 hours forming disks 2 mm in diameter. The dried disks containing the combination ratios and controls were then carefully placed at the growing edge of each CAM at day 7 of incubation. After a 2 day exposure ([…]) the vasculature was examined with the aid of a stereomicroscope. Liposyn II, a white opaque solution, was injected into the CAM to increase the visibility of the vascular details.
# This imaging setup was used at a magnification of 160× which permitted the direct visualization of blood cells within the capillaries; thereby blood flow in areas of interest may be easily assessed and recorded. For this study, the inhibition of angiogenesis was defined as an area of the CAM (measuring 2-6 mm in diameter) lacking a capillary network and vascular blood flow. Throughout the experiments, avascular zones were assessed on a 4 point avascular gradient (Table 1). This scale represents the degree of overall inhibition with maximal inhibition represented as a 3 on the avascular gradient scale.
Compound,Score (avascular gradient scale) (dipyridamole 0.02 μg/10 μL disc alone),Score (avascular gradient scale) (dipyridamole 0.06 μg/10 μL disc alone),Score (avascular gradient scale) (dipyridamole 5.92 μg/10 μL disc alone),Score (avascular gradient scale) (paclitaxel 1 μg/10 μL disc alone)
"OCCN(CCO)c1nc(N2CCCCC2)c2nc(N(CCO)CCO)nc(N3CCCCC3)c2n1 [Dipyridamole (control), 2,6-bis(diethanolamino)-4,8-dipiperidinopyrimido(5,4-d) pyrimidine]",0,0,0,–
"CC(=O)O[C@H]1C(=O)[C@@]2(C)[C@H]([C@H](OC(=O)c3ccccc3)[C@]3(O)C[C@H](OC(=O)[C@H](O)[C@@H](NC(=O)c4ccccc4)c4ccccc4)C(C)=C1C3(C)C)[C@]1(OC(C)=O)CO[C@@H]1C[C@@H]2O [Paclitaxel (control), paclitaxel]",–,–,–,2

# Reference: US20100074934A1, “MEDICAL IMPLANTS WITH A COMBINATION OF COMPOUNDS” (priority 2006, published 2010)
